Results published in US5155115A, “Thienopyridine derivatives” (Kyowa Hakko Kogyo Co., Ltd., priority 1991, dated 1992).

Assays:
5-HT3 receptor = 5-HT3 receptor binding test ([^3 H] quipazine, NG108-15 cell membrane fraction); design: species or system rat; conditions: 2 nM [^3 H] quipazine, 37° C., 60 minutes, pH 7.5; for Inhibition Rate (%) (concentration) 10^-7 M: 10^-7 M test compound; for Inhibition Rate (%) (concentration) 10^-8 M: 10^-8 M test compound
Method: 5-HT3 receptor binding test
Using rat neutroblastoma-glicoma NG108-15 cell membrane fraction, the binding activities of the test compounds to 5-HT3 receptor were examined.
A membrane fraction of NG108-15 cells was prepared according to the method of Neijt et al. [Naunyn-Schmiedeberg's Arch. Pharmacol., 337, 493 (1988)].
The receptor binding test was performed using [^3 H] quipazine [J. Neurochem., 52, 1787 (1989)], a high affinity ligand to 5-HT3 receptor.
A membrane fraction obtained from 4×10^5 NG108-15 cells was suspended in 1 ml of 20 mM Tris-hydrochloride buffer (pH 7.5) (hereinafterreferred to as Buffer) containing 154 mM sodium chloride. Then, 2 nM [^3 H] quipazine (2519.7 GBq/mmol; NEN CO.) and various concentrations of the test compound were added to the suspension followed by incubating at 37° C. for 60 minutes. 4 ml of ice-cold Buffer was added to terminate the reaction and then the mixture was filtered through GF/C glass fiber filter (Whatmann Co., Ltd.). The filter was washed 5 times with 2 ml of ice-cold Buffer, and put in a scintillation vial containing 8 ml of Scintisol EX-H (Wako Pure Chemicals, Inc.). Radioactivity on the filter was counted in a liquid scintillation counter (TRI-CARB 2200CA; Packard Co., Ltd.).
An inhibition of the [^3 H] quipazine binding by the test compound was estimated according to the equation; [formula]
"Total binding" is [^3 H] quipazine-binding in the absence of test compound and "non-specific binding" is [^3 H] quipazine-binding in the presence of 10 μM MDL7222 5-HT3 antagonist [Naunyn-Schmiedeberg's Arch. Pharmacol., 326, 36 (1984)].

[1] = test system: Cisplatin-induced Vomiting; test: Activity Against Cisplatin-induced Vomiting; format: in vivo, Suncus murinus; conditions: 1.0 mg/kg i.p., 30 minutes before cisplatin 40 mg/kg i.p., n = 10
Method: Activity Against Cisplatin-induced Vomiting
In one group, 5 to 10 female and male Suncus murinus animals weighing 23 to 68 g were used. According to the method of Matsuki et al. [Japan J. Pharmacol., 48, 303 (1988)], each animal was put into a separate metal net cage (width 15 cm ×length 21 cm ×height 15 cm). One hour after, a test compound or physiological saline (control) was intraperitoneally (i.p.) administered in a dose of 10 μl/g of body weight. Further 30 minutes after administration of the test compound or physiological saline (control), 40 mg/kg of cisplatin was intraperitoneally administered. Taking no account of vomiting caused for 5 minytes after administration of cisplatin, a time period (latency) for the first vomiting and the number of frequencies (episodes) of vomiting caused for the period of 5 to 120 minutes after administration were determined. The latency and the number of frequencies in the test compound administered group were compared with those in the control group. The test of significance was performed by Student's t-test.

dd-Y-strain male mice = test: Acute Toxicity (minimum lethal dose); format: in vivo; conditions: mortality for 7 days
Method: A test compound was intraperitoneally and orally administered to dd-Y-strain male mice weighing 20 to 25 g. The minimum lethal dose (MLD) was determined by observing the mortality for 7 days after the administration.

Row | Structure (SMILES) | Inhibition Rate (%) (concentration) 10^-7 M (5-HT3 receptor) | Inhibition Rate (%) (concentration) 10^-8 M (5-HT3 receptor) | Number of Vomiting episodes (mean ± S.E.M.) ([1]; 5 to 120 minutes after cisplatin, control 29.2 ± 4.5 (n = 5)) | Latency (min.) (mean ± S.E.M.) ([1]; time to first vomiting, control 28.6 ± 6.3 (n = 5)) | MLD (mg/kg) i.p. (dd-Y-strain male mice) | MLD (mg/kg) p.o. (dd-Y-strain male mice)
1 | CN1[C@@H]2CC[C@H]1C[C@@H](NC(=O)c1c(O)c3sccc3[nH]c1=O)C2 [Compound 1, Endo-N-(8-methyl-8-azabicyclo[3.2.1]oct-3-yl)-4,5-dihydro-7-hydroxy-5-oxothieno[3,2-b]pyridine-6-carboxamide] | 94% | 44% | 9.3 ± 2.2 | 66.0 ± 10.4 min | > 100 mg/kg | > 300 mg/kg
2 | CCCCn1c(=O)c(C(=O)N[C@H]2C[C@H]3CC[C@@H](C2)N3C)c(O)c2sccc21 [Compound 3, Endo-N-(8-methyl-8-azabicyclo[3.2.1]oct-3-yl)-4-(n-butyl)-4,5-dihydro-7-hydroxy-5-oxothieno[3,2-b]pyridine-6-carboxamide] | 101% | 98% | – | – | – | > 200 mg/kg
3 | CCCCn1c(=O)c(C(=O)O[C@H]2C[C@H]3CC[C@@H](C2)N3C)c(O)c2sccc21 [Compound 4, Endo-8-methyl-8-azabicyclo[3.2.1]oct-3-yl 4-(n-butyl)-4,5-dihydro-7-hydroxy-5-oxothieno[3,2-b]pyridine-6-carboxylate] | – | – | – | – | > 50 mg/kg | > 100 mg/kg
4 | CCCCn1c(=O)c(C(=O)N[C@H]2C[C@H]3CC[C@@H](C2)N3C)c(O)c2ccsc21 [Compound 5, Endo-N-(8-methyl-8-azabicyclo[3.2.1]oct-3-yl)-7-(n-butyl)-6,7-dihydro-4-hydroxy-6-oxothieno[2,3-b]pyridine-5-carboxamide] | 105% | 100% | – | – | > 100 mg/kg | > 300 mg/kg
5 | CCCCn1c(=O)c(C(=O)O[C@H]2C[C@H]3CC[C@@H](C2)N3C)c(O)c2ccsc21 [Compound 6, Endo-8-methyl-8-azabicyclo[3.2.1]oct-3-yl 7-(n-butyl)-6,7-dihydro-4-hydroxy-6-oxothieno[2,3-b]pyridine-5-carboxylate] | – | – | – | – | > 100 mg/kg | > 100 mg/kg
6 | CN1[C@@H]2CC[C@H]1C[C@@H](NC(=O)c1c(O)c3ccsc3[nH]c1=O)C2 [Compound 7, Endo-N-(8-methyl-8-azabicyclo[3.2.1]oct-3-yl)-6,7-dihydro-4-hydroxy-6-oxothieno[2,3-b]pyridine-5-carboxamide] | 71% | 23% | – | – | – | –
7 | CN1[C@@H]2CC[C@H]1C[C@@H](OC(=O)c1c(O)c3ccsc3[nH]c1=O)C2 [Compound 8, Endo-8-methyl-8-azabicyclo[3.2.1]oct-3-yl 6,7-dihydro-4-hydroxy-6-oxothieno[2,3-b]pyridine-5-carboxylate] | – | – | – | – | > 100 mg/kg | > 300 mg/kg
8 | CN1[C@@H]2CCC[C@H]1C[C@@H](NC(=O)c1c(O)c3ccsc3[nH]c1=O)C2 [Compound 9, Endo-N-(9-methyl-9-azabicyclo[3.3.1]non-3-yl)-6,7-dihydro-4-hydroxy-6-oxothieno[2,3-b]pyridine-5-carboxamide] | 69% | 12% | – | – | > 50 mg/kg | > 300 mg/kg
